# Assay results reported in patent publication US12428406B2 (PMV Pharmaceuticals, Inc., priority 2019, dated 2025).
# Target: T1, p53 Y220C (Homo sapiens, UniProt P04637, Y220C)
# T1 construct: The recombinant protein was a truncation mutant containing only amino acids 94-312 of p53; made in house; host or cells: E. coli
# Assay: In vitro DNA binding activity assay (HTRF / TR-FRET): stabilization of p53 Y220C and increase of its DNA binding activity
# Type: biochemical
# Conditions: recombinant His-tagged p53 Y220C DNA binding domain (aa 94-312), biotin-labeled consensus DNA, incubated at 27° C. or 29° C. for 60 min
# Summary of the method: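 Stabilization of the mutant is inferred from increased binding of His-tagged p53 Y220C to a biotin-labeled consensus DNA, detected by HTRF with europium-streptavidin and APC-anti-His antibody. The concentration giving a 50% rise over compound-free binding is reported as SC150.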
# T1 sequence (P04637 94-312, change not shown): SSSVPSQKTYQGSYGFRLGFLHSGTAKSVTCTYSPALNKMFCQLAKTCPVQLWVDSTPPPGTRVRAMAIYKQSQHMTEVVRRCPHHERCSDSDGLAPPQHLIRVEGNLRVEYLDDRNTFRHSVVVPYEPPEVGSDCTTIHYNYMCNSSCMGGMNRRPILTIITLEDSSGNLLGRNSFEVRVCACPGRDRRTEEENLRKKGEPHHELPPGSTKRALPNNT
row,SC150 (concentration of the compound required to increase the DNA binding activity by 50%),Compound
1,+ (+ = 0 μM ≤ SC150 < 0.05 μM),"COc1cc(S(C)(=O)=O)ccc1NCC#Cc1cc2c(N[C@H]3CC[C@H](N4CCOCC4)CC3)cccc2n1CCF [Compound 176A, 1-(2-fluoroethyl)-2-{3-[(4-methane-sulfonyl-2-methoxy-phenyl)amino]prop-1-yn-1-yl}-N-[(1R,4R)-4-(morpholin-4-yl)cyclo-hexyl]-1H-indol-4-amine]"
2,+ (+ = 0 μM ≤ SC150 < 0.05 μM),"CN(C)[C@H]1CC[C@H](Nc2cccc3c2cc(C#CCNc2ccc(S(C)(=O)=O)cc2OCCO)n3CC(F)(F)F)CC1 [Compound 87A, 2-(5-methanesulfonyl-2-{[3-(4-{[(1R,4R)-4-(dimethylamino)cyclohexyl]amino}-1-(2,2,2-trifluoroethyl)-1H-indol-2-yl)prop-2-yn-1-yl]amino}phenoxy)ethan-1-ol]"
3,+ (+ = 0 μM ≤ SC150 < 0.05 μM),"COc1cc(S(C)(=O)=O)ccc1NCC#Cc1cc2c(N[C@H]3CC[C@H](N4CC5COCC5C4)CC3)cccc2n1CC(F)(F)F (stereo partly drawn) [Compound 432A, 2-{3-[(4-methane-sulfonyl-2-methoxy-phenyl)amino]prop-1-yn-1-yl}-N-[(1R,4R)-4-{hexahydro-1H-furo[3,4-c]pyrrol-5-yl}cyclohexyl]-1-(2,2,2-trifluoroethyl)-1H-indol-4-amine]"
4,+ (+ = 0 μM ≤ SC150 < 0.05 μM),"CS(=O)(=O)c1ccc(NCC#Cc2cc3c(N[C@H]4CC[C@H](N5CC6(COC6)C5)CC4)cccc3n2CC(F)(F)F)c(C(F)(F)F)c1 [Compound 287A, 2-(3-{[4-methane-sulfonyl-2-(trifluoro-methyl)phenyl]amino}prop-1-yn-1-yl)-N-[(1R,4R)-4-{2-oxa-6-azaspiro[3,3]heptan-6-yl}cyclohexyl]-1-(2,2,2-trifluoroethyl)-1H-indol-4-amine]"
5,+ (+ = 0 μM ≤ SC150 < 0.05 μM),"COc1cc(S(N)(=O)=O)ccc1NCC#Cc1cc2c(NC3CCN(C[C@H](CO)OC)CC3)cccc2n1CC(F)(F)F [Compound 623A, 4-({3-[4-({1-[(2R)-3-hydroxy-2-methoxypropyl]piperidin-4-yl}amino)-1-(2,2,2-trifluoroethyl)-1H-indol-2-yl]prop-2-yn-1-yl}amino)-3-methoxybenzene-1-sulfonamide]"
6,+ (+ = 0 μM ≤ SC150 < 0.05 μM),"N#CCOc1cc(S(N)(=O)=O)ccc1NCC#Cc1cc2c(N[C@H]3CC[C@H](N4CC5(CCOCC5)C4)CC3)cccc2n1CC(F)(F)F [Compound 299A, 3-(cyanomethoxy)-4-{[3-(4-{[(1R,4R)-4-{7-oxa-2-azaspiro[3.5]nonan-2-yl}cyclo-hexyl]amino}-1-(2,2,2-trifluoroethyl)-1H-indol-2-yl)prop-2-yn-1-yl]amino}benzene-1-sulfonamide]"
7,+ (+ = 0 μM ≤ SC150 < 0.05 μM),"CCOC(=O)c1ccc(NCC#Cc2cc3c(N[C@H]4CCN(C)C[C@H]4F)cccc3n2CC(F)(F)F)c(OC)c1 [Compound 840A, ethyl 4-((3-(4-(((3R,4S)-3-fluoro-1-methylpiperidin-4-yl)amino)-1-(2,2,2-trifluoroethyl)-1H-indol-2-yl)prop-2-yn-1-yl)amino)-3-methoxybenzoate]"
8,+ (+ = 0 μM ≤ SC150 < 0.05 μM),"COc1cc(S(C)(=O)=O)ccc1NCC#Cc1cc2c(N[C@@H]3CCN(C)C[C@@H]3F)cccc2n1CC(F)(F)F [Compound 772A, N-[(3S,4R)-3-fluoro-1-methylpiperidin-4-yl]-2-{3-[(4-methanesulfonyl-2-methoxyphenyl)amino]prop-1-yn-1-yl}-1-(2,2,2-trifluoroethyl)-1H-indol-4-amine]"
9,+ (+ = 0 μM ≤ SC150 < 0.05 μM),"COC[C@H](O)CN1CC[C@@H](Nc2cccc3c2cc(C#CCNc2ccc(S(N)(=O)=O)cc2OC)n3CC(F)(F)F)[C@@H](F)C1 [Compound 869A, 4-{[3-(4-{[(3S,4R)-3-fluoro-1-[(2R)-2-hydroxy-3-methoxypropyl]piperidin-4-yl]amino}-1-(2,2,2-trifluoroethyl)-1H-indol-2-yl)prop-2-yn-1-yl]amino}-3-methoxybenzene-1-sulfonamide]"
10,+ (+ = 0 μM ≤ SC150 < 0.05 μM),COc1cc(C(N)=O)ccc1NCC#Cc1cc2c(NC3CCN(C[C@@H](O)CO)CC3)cccc2n1CC(F)(F)F [Compound 583A]
11,+ (+ = 0 μM ≤ SC150 < 0.05 μM),"COc1cc(C(C)(C)C#N)ccc1NCC#Cc1cc2c(NC3CCC(N4CC5(COC5)C4)CC3)cccc2n1CC(F)(F)F [Compound 251A, 2-(3-methoxy-4-{[3-(4-{[(1R,4R)-4-{2-oxa-6-azaspiro[3.3]heptan-6-yl}cyclohexyl]amino}-1-(2,2,2-trifluoroethyl)-1H-indol-2-yl)prop-2-yn-1-yl]amino}phenyl)-2-methylpropanenitrile]"
12,+ (+ = 0 μM ≤ SC150 < 0.05 μM),"CNC(=O)c1cc(OC)c(NCC#Cc2cc3c(N[C@@H]4CCN(C)C[C@@H]4F)cccc3n2CC(F)(F)F)cn1 [Compound 1065A, 5-{[3-(4-{[(3S,4R)-3-fluoro-1-methylpiperidin-4-yl]amino}-1-(2,2,2-trifluoroethyl)-1H-indol-2-yl)prop-2-yn-1-yl]amino}-4-methoxy-N-methylpyridine-2-carboxamide]"
13,+ (+ = 0 μM ≤ SC150 < 0.05 μM),"COCC(O)CN1CCC(Nc2cccc3c2cc(C#CCNc2ccc(S(C)(=O)=O)cc2OC)n3CC(F)(F)F)CC1 (stereo not shown) [Compound 569A, 1-{4-[(2-{3-[(4-methanesulfonyl-2-methoxyphenyl)amino]prop-1-yn-1-yl}-1-(2,2,2-trifluoroethyl)-1H-indol-4-yl)amino]piperidin-1-yl}-3-methoxypropan-2-ol]"
14,+ (+ = 0 μM ≤ SC150 < 0.05 μM),"COc1cc(S(N)(=O)=O)ccc1NCC#Cc1cc2c(NC3CCN(C[C@H]4COC(=O)O4)CC3)cccc2n1CC(F)(F)F [Compound 759A, 3-methoxy-4-[(3-{4-[(1-{[(4S)-2-oxo-1,3-dioxolan-4-yl]methyl}piperidin-4-yl)amino]-1-(2,2,2-trifluoroethyl)-1H-indol-2-yl}prop-2-yn-1-yl)amino]benzene-1-sulfonamide]"
15,+ (+ = 0 μM ≤ SC150 < 0.05 μM),"COc1cc(C(=O)O)ccc1NCC#Cc1cc2c(N[C@H]3CC[C@H](N4CC5(COC5)C4)CC3)cccc2n1CC(F)(F)F [Compound 279A, 4-((3-(4-(((1R,4R)-4-(2-oxa-6-azaspiro[3.3]heptan-6-yl)cyclohexyl)amino)-1-(2,2,2-trifluoroethyl)-1H-indol-2-yl)prop-2-yn-1-yl)amino)-3-methoxybenzoic acid]"
16,++ (++ = 0.05 μM ≤ SC150 < 0.1 μM),"COCCNc1cccc2c1cc(C#CCNc1ccc(S(N)(=O)=O)cc1OC)n2CC(F)(F)F [Compound 2A, 3-methoxy-4-[(3-{4-[(2-methoxyethyl)amino]-1-(2,2,2-trifluoroethyl)-1H-indol-2-yl}prop-2-yn-1-yl)amino]benzene-1-sulfonamide]"
17,++ (++ = 0.05 μM ≤ SC150 < 0.1 μM),"COc1cc(C(=O)O)ccc1NCC#Cc1cc2c(N[C@H]3CCN(C)C[C@@H]3F)cccc2n1CC(F)(F)F (racemic) [Compound 833A, rac-4-{[3-(4-{[(3R,4R)-3-fluoro-1-methylpiperidin-4-yl]amino}-1-(2,2,2-trifluoroethyl)-1H-indol-2-yl)prop-2-yn-1-yl]amino}-3-methoxybenzoic acid]"
18,+ (+ = 0 μM ≤ SC150 < 0.05 μM),"CCOC(=O)c1ccc(NCC#Cc2cc3c(N[C@H]4CCN(C)C[C@H]4F)cccc3n2CC(F)(F)F)c(OC)c1 (racemic) [Compound 798A, rac-ethyl 4-{[3-(4-{[(3R,4S)-3-fluoro-1-methylpiperidin-4-yl]amino}-1-(2,2,2-trifluoroethyl)-1H-indol-2-yl)prop-2-yn-1-yl]amino}-3-methoxybenzoate]"
19,+ (+ = 0 μM ≤ SC150 < 0.05 μM),"CS(=O)(=O)c1ccc(NCC#Cc2cc3c(N[C@H]4CC[C@H](N5CC6(CCOCC6)C5)CC4)cccc3n2CC(F)(F)F)c(OCC#N)c1 [Compound 303A, 2-(5-methanesulfonyl-2-{[3-(4-{[(1R,4R)-4-{7-oxa-2-azaspiro[3.5]nonan-2-yl}cyclohexyl]amino}-1-(2,2,2-trifluoroethyl)-1H-indol-2-yl)prop-2-yn-1-yl]amino}phenoxy)acetonitrile]"
20,+ (+ = 0 μM ≤ SC150 < 0.05 μM),"CCOc1cc(S(C)(=O)=O)ccc1NCC#Cc1cc2c(N[C@H]3CC[C@H](N4CCC5(CC4)COC5)CC3)cccc2n1CC(F)(F)F [Compound 393A, N-((1R,4R)-4-(2-oxa-7-azaspiro[3.5]nonan-7-yl)cyclohexyl)-2-(3-((2-ethoxy-4-(methylsulfonyl)phenyl)amino)prop-1-yn-1-yl)-1-(2,2,2-trifluoroethyl)-1H-indol-4-amine]"
21,+ (+ = 0 μM ≤ SC150 < 0.05 μM),"CNC(=O)c1ccc(NCC#Cc2cc3c(NC4CCN(C)CC4)cccc3n2CC(F)(F)F)c(OC)c1 [Compound 482A, 3-methoxy-N-methyl-4-[(3-{4-[(1-methylpiperidin-4-yl)amino]-1-(2,2,2-trifluoroethyl)-1H-indol-2-yl}prop-2-yn-1-yl)amino]benzamide]"

row,Compound,SC150 (concentration of the compound required to increase the DNA binding activity by 50%)
1,"CNC(=O)c1ccc(NCC#Cc2cc3c(N[C@H]4CC[C@H](N5CC6CC(C5)O6)CC4)cccc3n2CC(F)(F)F)c(OC)c1 [Compound 402A, 3-methoxy-N-methyl-4-{[3-(4-{[(1R,4R)-4-{6-oxa-3-azabicyclo[3.1.1]heptan-3-yl}cyclohexyl]amino}-1-(2,2,2-trifluoroethyl)-1H-indol-2-yl)prop-2-yn-1-yl]amino}benzamide]",+ (+ = 0 μM ≤ SC150 < 0.05 μM)
